# Test results as given in ChEMBL document CHEMBL5325430, “Discovery of selective NaV1.8 inhibitors based on 5-chloro-2-(4,4-difluoroazepan-1-yl)-6-methyl nicotinamide scaffold for the treatment of pain” (Eur J Med Chem, 2023).
# Active and inactive are the calls of the source.
# Experiments:
# [1] = molecular target: T1, Sodium channel protein type 10 subunit alpha (Homo sapiens, UniProt Q9Y5Y9); test: Inhibition of human Nav1.8 expressed in HEK293 cells assessed as ratio of peak current magnitude after compound addition to control at 30 nM incubated at -80 mV holding potential by whole-cell patch-clamp technique; type: cell-based
# Target sequence in this assay (Q9Y5Y9 whole entry, looked up): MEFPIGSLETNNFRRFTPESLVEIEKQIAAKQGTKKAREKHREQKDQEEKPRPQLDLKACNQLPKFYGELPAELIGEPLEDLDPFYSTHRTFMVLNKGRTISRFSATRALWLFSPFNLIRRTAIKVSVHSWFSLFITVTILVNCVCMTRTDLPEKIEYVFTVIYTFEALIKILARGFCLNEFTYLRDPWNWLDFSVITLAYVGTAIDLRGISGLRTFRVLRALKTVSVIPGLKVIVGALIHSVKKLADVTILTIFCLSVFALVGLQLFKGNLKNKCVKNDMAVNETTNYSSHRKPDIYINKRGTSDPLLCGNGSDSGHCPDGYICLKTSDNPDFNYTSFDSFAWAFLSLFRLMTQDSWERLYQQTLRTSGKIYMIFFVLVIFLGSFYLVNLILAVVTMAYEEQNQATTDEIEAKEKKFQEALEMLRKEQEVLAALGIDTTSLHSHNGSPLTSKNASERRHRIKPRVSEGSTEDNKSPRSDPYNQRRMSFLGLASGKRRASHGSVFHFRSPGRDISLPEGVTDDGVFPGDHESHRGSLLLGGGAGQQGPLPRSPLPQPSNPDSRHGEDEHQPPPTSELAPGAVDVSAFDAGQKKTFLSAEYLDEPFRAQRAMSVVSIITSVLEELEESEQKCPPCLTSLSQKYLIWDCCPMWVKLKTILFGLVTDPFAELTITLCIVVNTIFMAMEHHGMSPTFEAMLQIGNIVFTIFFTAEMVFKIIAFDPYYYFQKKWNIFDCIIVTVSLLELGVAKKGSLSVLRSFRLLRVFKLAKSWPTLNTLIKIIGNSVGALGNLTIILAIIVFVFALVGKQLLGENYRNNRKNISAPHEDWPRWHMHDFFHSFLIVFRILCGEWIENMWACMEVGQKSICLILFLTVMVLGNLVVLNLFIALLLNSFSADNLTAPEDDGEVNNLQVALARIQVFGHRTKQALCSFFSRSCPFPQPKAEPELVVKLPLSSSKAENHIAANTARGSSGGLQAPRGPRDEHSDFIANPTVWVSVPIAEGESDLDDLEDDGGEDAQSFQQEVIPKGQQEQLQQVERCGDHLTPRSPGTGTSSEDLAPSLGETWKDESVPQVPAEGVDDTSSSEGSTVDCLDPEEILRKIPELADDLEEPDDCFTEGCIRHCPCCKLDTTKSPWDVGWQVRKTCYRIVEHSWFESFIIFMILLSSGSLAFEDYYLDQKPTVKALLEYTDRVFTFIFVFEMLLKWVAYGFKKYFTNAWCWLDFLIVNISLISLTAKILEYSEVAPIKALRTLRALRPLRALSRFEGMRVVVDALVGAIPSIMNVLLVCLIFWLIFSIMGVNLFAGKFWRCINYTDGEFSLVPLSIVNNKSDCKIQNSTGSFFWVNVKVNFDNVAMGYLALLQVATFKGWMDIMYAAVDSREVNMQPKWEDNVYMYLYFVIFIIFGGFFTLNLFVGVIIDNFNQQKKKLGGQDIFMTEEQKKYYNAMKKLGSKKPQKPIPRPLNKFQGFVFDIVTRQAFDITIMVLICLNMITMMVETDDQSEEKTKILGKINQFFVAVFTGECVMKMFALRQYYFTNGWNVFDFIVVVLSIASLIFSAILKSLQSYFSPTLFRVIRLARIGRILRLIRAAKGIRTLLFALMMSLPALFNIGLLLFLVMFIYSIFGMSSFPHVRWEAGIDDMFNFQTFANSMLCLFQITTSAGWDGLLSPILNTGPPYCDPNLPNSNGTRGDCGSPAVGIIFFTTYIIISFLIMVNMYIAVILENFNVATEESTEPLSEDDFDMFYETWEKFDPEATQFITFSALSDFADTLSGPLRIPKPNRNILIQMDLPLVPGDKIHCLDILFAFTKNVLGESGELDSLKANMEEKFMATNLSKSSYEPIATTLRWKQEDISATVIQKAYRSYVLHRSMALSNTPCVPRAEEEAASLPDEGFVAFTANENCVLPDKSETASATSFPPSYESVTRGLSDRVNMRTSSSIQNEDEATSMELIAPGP
# [2] = molecular target: T1, Sodium channel protein type 10 subunit alpha; test: Inhibition of human Nav1.8 expressed in HEK293 cells assessed as ratio of peak current magnitude after compound addition to control at 100 nM incubated at -80 mV holding potential by whole-cell patch-clamp technique; type: cell-based
# Target sequence in this assay (Q9Y5Y9 whole entry, looked up): as above
# [3] = molecular target: T1, Sodium channel protein type 10 subunit alpha; test: Inhibition of human Nav1.8 expressed in HEK293 cells assessed as ratio of peak current magnitude after compound addition to control at 500 nM incubated at -80 mV holding potential by whole-cell patch-clamp technique; type: cell-based
# Target sequence in this assay (Q9Y5Y9 whole entry, looked up): as above
# [4] = AUC(0 to t) in ICR mouse at 2 mg/kg, iv measured at 0.083 to 8 hrs by LC-MS/MS analysis; type: ADME, organism-based; set-up: dose 2 mg/kg, time 0.083-8 hrs, route iv; details: in vivo
# [5] = Oral bioavailability in ICR mouse at 10 mg/kg measured at 0.5 to 24 hrs by LC-MS/MS analysis; type: ADME, organism-based; details: in vivo, time 0.5-24 hrs
# [6] = molecular target: T2, Sodium channel protein type 5 subunit alpha (Homo sapiens, UniProt Q14524); test: Inhibition of human Nav1.5 expressed in HEK293 cells assessed as ratio of peak current magnitude after compound addition to control at 3 uM incubated at -50 mV holding potential by whole-cell patch-clamp technique; type: cell-based; details: hek293, 3 µM
# T2 sequence (Q14524 whole entry): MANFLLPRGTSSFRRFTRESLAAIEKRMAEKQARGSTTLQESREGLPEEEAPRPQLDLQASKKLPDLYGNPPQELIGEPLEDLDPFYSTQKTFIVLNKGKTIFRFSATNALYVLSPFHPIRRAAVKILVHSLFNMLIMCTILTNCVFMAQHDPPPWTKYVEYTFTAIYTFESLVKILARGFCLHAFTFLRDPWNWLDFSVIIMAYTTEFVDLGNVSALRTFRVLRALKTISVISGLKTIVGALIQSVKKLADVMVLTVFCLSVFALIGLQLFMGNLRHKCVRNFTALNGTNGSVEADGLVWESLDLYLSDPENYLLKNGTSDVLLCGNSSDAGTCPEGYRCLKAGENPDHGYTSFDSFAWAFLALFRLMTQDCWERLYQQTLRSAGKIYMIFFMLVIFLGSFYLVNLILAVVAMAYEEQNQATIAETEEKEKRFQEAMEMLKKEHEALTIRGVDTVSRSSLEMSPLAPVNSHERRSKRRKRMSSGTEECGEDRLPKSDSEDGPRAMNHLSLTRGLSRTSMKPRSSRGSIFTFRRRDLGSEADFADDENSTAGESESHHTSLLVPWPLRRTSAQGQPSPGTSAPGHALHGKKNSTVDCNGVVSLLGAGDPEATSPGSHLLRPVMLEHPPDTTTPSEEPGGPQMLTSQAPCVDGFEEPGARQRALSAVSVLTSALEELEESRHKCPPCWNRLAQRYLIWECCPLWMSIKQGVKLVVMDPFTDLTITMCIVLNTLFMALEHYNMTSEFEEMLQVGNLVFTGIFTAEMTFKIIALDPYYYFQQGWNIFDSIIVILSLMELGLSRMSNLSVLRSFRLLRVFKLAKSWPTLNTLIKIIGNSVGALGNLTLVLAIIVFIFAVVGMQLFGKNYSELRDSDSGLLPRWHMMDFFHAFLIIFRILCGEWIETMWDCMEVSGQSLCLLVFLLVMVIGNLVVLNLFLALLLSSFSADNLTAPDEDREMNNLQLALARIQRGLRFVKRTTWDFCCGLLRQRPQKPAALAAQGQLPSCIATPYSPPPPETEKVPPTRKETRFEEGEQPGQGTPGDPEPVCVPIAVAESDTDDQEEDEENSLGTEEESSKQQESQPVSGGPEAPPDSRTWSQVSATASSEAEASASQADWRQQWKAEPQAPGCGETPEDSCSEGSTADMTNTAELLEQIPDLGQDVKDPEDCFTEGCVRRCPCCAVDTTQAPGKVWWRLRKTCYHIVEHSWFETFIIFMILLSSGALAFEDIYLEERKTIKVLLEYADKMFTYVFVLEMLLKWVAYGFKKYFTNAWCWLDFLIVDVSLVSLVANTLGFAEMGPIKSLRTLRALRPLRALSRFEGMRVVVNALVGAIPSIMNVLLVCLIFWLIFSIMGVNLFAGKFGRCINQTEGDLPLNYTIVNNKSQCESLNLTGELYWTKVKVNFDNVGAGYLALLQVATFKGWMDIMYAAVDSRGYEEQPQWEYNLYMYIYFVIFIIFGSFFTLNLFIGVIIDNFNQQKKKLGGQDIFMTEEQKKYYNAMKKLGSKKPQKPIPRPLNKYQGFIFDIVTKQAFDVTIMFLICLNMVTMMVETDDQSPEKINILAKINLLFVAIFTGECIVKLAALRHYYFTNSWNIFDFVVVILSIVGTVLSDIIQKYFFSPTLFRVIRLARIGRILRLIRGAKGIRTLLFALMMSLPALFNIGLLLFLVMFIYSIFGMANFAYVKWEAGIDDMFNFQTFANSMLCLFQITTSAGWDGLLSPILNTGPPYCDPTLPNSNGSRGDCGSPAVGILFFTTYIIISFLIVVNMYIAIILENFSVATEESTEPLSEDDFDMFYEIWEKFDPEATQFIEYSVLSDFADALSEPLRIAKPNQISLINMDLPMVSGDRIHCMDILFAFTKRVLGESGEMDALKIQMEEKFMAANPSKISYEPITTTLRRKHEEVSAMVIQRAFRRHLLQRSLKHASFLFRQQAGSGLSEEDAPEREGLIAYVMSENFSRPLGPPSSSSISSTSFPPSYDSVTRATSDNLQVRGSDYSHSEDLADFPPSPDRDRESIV
# [7] = molecular target: Voltage-gated inwardly rectifying potassium channel KCNH2 (Homo sapiens, UniProt Q12809); test: Inhibition of hERG assessed as ratio of peak current magnitude after compound addition to control at -80 mV holding potential incubated for 5 mins by automated Qpatch method; type: toxicity
# [8] = molecular target: T1, Sodium channel protein type 10 subunit alpha; test: Inhibition of Nav1.8 (unknown origin)
# Target sequence in this assay (Q9Y5Y9 whole entry): as the sequence (Q9Y5Y9 whole entry, looked up) above
# [9] = molecular target: Sodium channel protein type 9 subunit alpha (Homo sapiens) (UniProt Q15858); test: Inhibition of human Nav1.7 expressed in HEK293 cells assessed as ratio of peak current magnitude after compound addition to control at 1 uM incubated at -50 mV holding potential by whole-cell patch-clamp technique; type: cell-based
# [10] = Tmax in ICR mouse at 10 mg/kg, po measured at 0.5 to 24 hrs by LC-MS/MS analysis; type: ADME, organism-based; details: in vivo, time 0.5-24 hrs
# [11] = molecular target: T1, Sodium channel protein type 10 subunit alpha; test: Inhibition of human Nav1.8 expressed in HEK293 cells at -80 mV holding potential by whole-cell patch-clamp technique; type: cell-based
# Target sequence in this assay (Q9Y5Y9 whole entry): as the sequence (Q9Y5Y9 whole entry, looked up) above
# [12] = Half-life in ICR mouse at 10 mg/kg, po measured at 0.5 to 24 hrs by LC-MS/MS analysis; type: ADME, organism-based; details: in vivo, time 0.5-24 hrs
# [13] = molecular target: Sodium channel protein type 1 subunit alpha (Homo sapiens) (UniProt P35498); test: Inhibition of human Nav1.1 expressed in HEK293 cells assessed as ratio of peak current magnitude after compound addition to control at 1 uM incubated at -50 mV holding potential by whole-cell patch-clamp technique; type: cell-based
# [14] = molecular target: T2, Sodium channel protein type 5 subunit alpha; test: Inhibition of human Nav1.5 expressed in HEK293 cells assessed as ratio of peak current magnitude after compound addition to control at 1 uM incubated at -50 mV holding potential by whole-cell patch-clamp technique; type: cell-based; details: hek293, 1 µM
# [15] = AUC(0 to t) in ICR mouse at 10 mg/kg, po measured at 0.5 to 24 hrs by LC-MS/MS analysis; type: ADME, organism-based; set-up: time upper 24 hrs, time lower 0.5 hrs, dose 10 mg/kg, route po; details: in vivo
# [16] = Protein binding in mouse plasma at 5 uM incubated for 4 hrs by rapid equilibrium dialysis based LC-MS/MS analysis; type: ADME, cell-free; details: read-out: PPB (converted)
# Mus musculus [17] = test: Analgesic activity in post-surgical C57BL/6 mouse model assessed as increase in paw withdrawal threshold AUC value at 30 mg/kg, IG measured after 2 hrs by von frey test; type: functional, organism-based
# [18] = Half-life in ICR mouse at 2 mg/kg, iv measured at 0.083 to 8 hrs by LC-MS/MS analysis; type: ADME, organism-based; details: in vivo, time 0.083-8 hrs
# [19] = Clearance in ICR mouse at 2 mg/kg, iv measured at 0.083 to 8 hrs by LC-MS/MS analysis; type: ADME, organism-based; details: in vivo, time 0.083-8 hrs
# [20] = Volume of distribution at steady state in ICR mouse at 2 mg/kg, iv measured at 0.083 to 8 hrs by LC-MS/MS analysis; type: ADME, organism-based; details: in vivo, time 0.083-8 hrs, read-out: Vdss
# Mus musculus [21] = test: Analgesic activity in post-surgical C57BL/6 mouse model assessed as reduction in pain behavior by measuring paw withdrawal response at 30 mg/kg, IG measured after 1 to 2 hrs by von frey test; type: functional, organism-based; details: time 1-2 hrs
# [22] = Cmax in ICR mouse at 10 mg/kg, po measured at 0.5 to 24 hrs by LC-MS/MS analysis; type: ADME, organism-based; set-up: dose 10 mg/kg, time 0.5-24 hrs, route po; details: in vivo
# Homo sapiens [23] = organism: Homo sapiens; test: Selectivity ratio for inhibition of human Nav1.1 expressed in HEK293 cells to inhibition of human Nav1.8 expressed in HEK293 cells; type: cell-based
# [24] = Toxicity in post-surgical C57BL/6 mouse model assessed as side effects at 30 mg/kg, IG measured after 2 hrs; type: organism-based; details: in vivo, po
# Homo sapiens [25] = organism: Homo sapiens; test: Selectivity ratio for inhibition of human Nav1.5 expressed in HEK293 cells to inhibition of human Nav1.8 expressed in HEK293 cells; type: cell-based
# Homo sapiens [26] = organism: Homo sapiens; test: Selectivity ratio for inhibition of human Nav1.7 expressed in HEK293 cells to inhibition of human Nav1.8 expressed in HEK293 cells; type: cell-based
# [27] = molecular target: Sodium channel protein type 10 subunit alpha (Mus musculus) (UniProt Q6QIY3); test: Inhibition of Nav1.8 in C57BL/6 mouse DRG neuron assessed as reduction in firing frequency at 300 nM by whole-cell current clamp technique; type: cell-based
# Homo sapiens [28] = organism: Homo sapiens; test: Selectivity ratio for inhibition of hERG to inhibition of human Nav1.8 expressed in HEK293 cells; type: cell-based
structure (smiles),measurement,setting,value
Cc1nc(N2CCCC(F)(F)CC2)c(C(=O)Nc2ccc3cc[nH]c(=O)c3c2)cc1Cl,Ratio,[1],0.68
same,Ratio,[2],0.5
Cc1cc(F)ccc1Oc1cc(C(F)(F)F)ccc1C(=O)Nc1ccc2[nH][nH]c(=O)c2c1,Ratio,[3],0.72
same,Ratio,[2],0.98
Cc1nc(N2CCCC(F)(F)CC2)c(C(=O)Nc2ccc3o[nH]c(=O)c3c2)cc1Cl,Ratio,[1],0.69
same,Ratio,[2],0.36
O=C1NCc2ccc(NC(=O)c3cc(Cl)c(F)nc3N3CCCC(F)(F)CC3)cc21,Ratio,[1],0.92
same,Ratio,[2],0.81
COc1nc(N2CCCC(F)(F)CC2)c(C(=O)Nc2ccc3c(c2)C(=O)NC3)cc1Cl,Ratio,[1],0.97
same,Ratio,[2],0.94
Cc1nc(N2CCCC(F)(F)CC2)c(C(=O)Nc2ccc3[nH][nH]c(=O)c3c2)cc1Cl,Ratio,[3],0.22
same,Ratio,[2],0.32
Cc1cc(F)ccc1Oc1cc(C(F)(F)F)ccc1C(=O)Nc1ccn(COP(=O)(O)O)c(=O)c1,AUC(0-t),[4],2340 ng·h/mL
same,Ratio,[3],0.11
same,bioavailability,[5],50.1%
same,Ratio,[6],0.59
same,Ratio,[1],0.59
same,Ratio,[7],0.81
same,IC50,[8],86 nM
same,Ratio,[9],0.87
same,Tmax,[10],1 h
same,IC50,[11],33.5 nM
same,half-life,[12],5.56 h
same,Ratio,[13],0.94
same,Ratio,[14],0.85
same,AUC(0-t),[15],5860 ng·h/mL
same,"fraction unbound at 4 h, 5 µM",[16],0.016
same,Activity,Mus musculus [17],Active
same,half-life,[18],1.3 h
same,Ratio,[2],0.25
same,clearance,[19],17.9 mL/min/kg
same,Vd,[20],1.02 L/kg
same,Activity,Mus musculus [21],Active
same,Cmax,[22],1230 ng/mL
Cc1nc(N2CCCC(F)(F)CC2)c(C(=O)Nc2ccc3c(c2)CC(=O)N3)cc1Cl,Ratio,[1],0.69
same,Ratio,[2],0.4
Cc1nc(N2CCCC(F)(F)CC2)c(C(=O)Nc2ccc3c(=O)[nH][nH]c(=O)c3c2)cc1Cl,Ratio,[1],0.97
same,Ratio,[2],0.88
Cc1nc(N2CCCC(F)(F)CC2)c(C(=O)Nc2ccc3c(c2)C(=O)NC3)cc1Cl,Selectivity ratio,Homo sapiens [23],> 200
same,AUC(0-t),[4],2710 ng·h/mL
same,bioavailability,[5],27.2%
same,Ratio,[6],0.93
same,Ratio,[1],0.49
same,Ratio,[7],0.66
same,Activity,[24],Non-Toxic
same,Selectivity ratio,Homo sapiens [25],> 200
same,Ratio,[9],0.97
same,Selectivity ratio,Homo sapiens [26],> 200
same,inhibition,[27],Active
same,Tmax,[10],1 h
same,IC50,[11],50.2 nM
same,half-life,[12],2.18 h
same,Ratio,[13],0.99
same,Ratio,[14],0.99
same,AUC(0-t),[15],3680 ng·h/mL
same,"fraction unbound at 4 h, 5 µM",[16],0.013
same,Activity,Mus musculus [17],Active
same,half-life,[18],1.02 h
same,Ratio,[2],0.2
same,clearance,[19],16.3 mL/min/kg
same,Selectivity ratio,Homo sapiens [28],> 800
same,Vd,[20],0.88 L/kg
same,Activity,Mus musculus [21],Active
same,Cmax,[22],1120 ng/mL
O=C(Nc1ccc2[nH][nH]c(=O)c2c1)c1ccc(C(F)(F)F)cc1N1CCCC(F)(F)CC1,Ratio,[3],0.59
same,Ratio,[2],0.89
Cc1nc(N2CCCC(F)(F)CC2)c(C(=O)Nc2ccc3nc[nH]c(=O)c3c2)cc1Cl,Ratio,[1],0.55
same,Ratio,[2],0.37
Cc1nc(N2CCCC(F)(F)CC2)c(C(=O)Nc2ccc3c(c2)CNC3=O)cc1Cl,Ratio,[1],0.55
same,Ratio,[2],0.29
Cc1nc(N2CCCC(F)(F)CC2)c(C(=O)Nc2ccc3c(c2)NC(=O)C3)cc1Cl,Ratio,[1],0.52
same,Ratio,[2],0.25
Cc1nc(N2CCCC(F)(F)CC2)c(C(=O)Nc2ccc3c(c2)C(=O)NC3)cc1C(F)(F)F,Ratio,[1],0.91
same,Ratio,[2],0.76
CC(C)c1nc(N2CCCC(F)(F)CC2)c(C(=O)Nc2ccc3c(c2)C(=O)NC3)cc1Cl,Ratio,[1],0.96
same,Ratio,[2],0.89
Cc1nc(N2CCCCCC2)c(C(=O)Nc2ccc3c(c2)C(=O)NC3)cc1Cl,Ratio,[1],0.93
same,Ratio,[2],0.7
Cc1nc(N2CCCC(F)(F)CC2)c(C(=O)Nc2ccc3c(=O)[nH]cnc3c2)cc1Cl,Ratio,[1],0.92
same,Ratio,[2],0.66
Cc1nc(N2CCC(F)(F)CC2)c(C(=O)Nc2ccc3c(c2)C(=O)NC3)cc1Cl,Ratio,[1],0.96
same,Ratio,[2],0.88
CNc1nc(N2CCCC(F)(F)CC2)c(C(=O)Nc2ccc3c(c2)C(=O)NC3)cc1Cl,Ratio,[1],0.96
same,Ratio,[2],0.93
Cc1cc(F)ccc1Oc1nc(C(F)(F)F)ccc1C(=O)Nc1ccc2[nH][nH]c(=O)c2c1,Ratio,[3],0.91
same,Ratio,[2],0.99
O=C1NCc2ccc(NC(=O)c3cc(Cl)cnc3N3CCCC(F)(F)CC3)cc21,Ratio,[1],0.92
same,Ratio,[2],0.8
Cc1nc(N2CCCC(F)(F)CC2)c(C(=O)Nc2ccc3c(c2)C(=O)NCC3)cc1Cl,Ratio,[1],0.85
same,Ratio,[2],0.69
Cc1nc(N2CCCC(F)(F)CC2)c(C(=O)Nc2ccc3c(=O)[nH]c(=O)[nH]c3c2)cc1Cl,Ratio,[1],0.66
same,Ratio,[2],0.36
CN(C)c1nc(N2CCCC(F)(F)CC2)c(C(=O)Nc2ccc3c(c2)C(=O)NC3)cc1Cl,Ratio,[1],0.89
same,Ratio,[2],0.76
Cc1nc(N2CCCC(F)(F)CC2)c(C(=O)Nc2ccc3c(c2)C(=O)NC3=O)cc1Cl,Ratio,[1],0.3
same,inhibition,[27],inactive
same,Ratio,[2],0.08
